Assay results: patent EP2181589A1, “Neurotoxic sterol glycosides” (Shaw, Christopher Ariel, priority 2008, dated 2010)
Entries after “also recorded” stand apart in the source; their conditions may differ. Marks after values point to notes of the source that are not given here.

Tests used:
CD-1 mice [1] = experiment: Open field monitoring; assay type: in vivo; conditions: SG-fed vs control
Protocol: (§1) Five-month old male CD-1 mice (30.1-35.7 g, 7.5 cm - 8.8 cm) were purchased from Charles River (Wilmington, MA). Adult mice were chosen to mimic the mean age of onset of ALS-PDC (Kurland, 1988; Kurland et al., 1994). Thirty mice for the SG study were randomly divided into 2 groups (14 control and 16 experimental animals). All animals were housed singly in a virus-free barrier facility in a room maintained at 22°C under a 12 hour light/dark cycle. The mice were provided ad libitum access to food and water.
(§2) The synthetic SG was mixed with finely ground Purina Chow mouse pellets (Mouse Diet™, Purina) to create the experimental pellets with a SG content of 1000 µg per pellet. Dry materials were blended with a sterile silicon spatula. For every 5 g of standard feed, 2.5 mL of doubly-distilled water (dd)H2O was added and the dough was kneaded and round up into pellets. A single sterol glucoside containing pellet was placed in the feeding tray each morning before the addition of regular mouse chow (ad libitum). All experimental pellets were entirely consumed by the mice each day. Control mice were fed standard mouse chow pellets of identical weight with no additives. SG feeding was conducted daily for 15 weeks and mice were behaviorally monitored until sacrifice at 35 weeks (time point 1) or 52 weeks (time point 2).
Open field monitoring: Spontaneous activity in an open field is considered one of the most standardized general measures of motor function (Crawley, 2000). The open field test can also reveal stress response in animals (i.e. defensive burying or thigmotaxis) (Karl et al., 2003). Open field testing of each animal was conducted every two weeks. A single mouse was placed in one of four round open field arena/tubs (approximately 1 m diameter) to permit the testing of four animals per 5 minute trial. […] This in turn, increases the likelihood of detection of fear-based behavior (Crawley, 2000) and minimizes habituation of the animal to the open field (Crawley, 2000). Testing arenas were cleaned with 70% ethanol before the testing of each animal and with quatricide at the end of each testing session. Movements were recorded using a video camera mounted on the ceiling. Video clips were reviewed and were manually scored or automatically analysed on an automated video tracking software (Ethovision® 3.1, Noldus Information Technologies Inc., Leesburg, VA, USA). Scoring was done on videotaped sessions, rather than in-person at the time of testing to avoid the introduction of confounding variables by the presence of an observer in close proximity to the mice (Crawley, 2000).

[2] = tested on: Activating transcription factor-3; experiment: Activating transcription factor-3 immunofluorescence; assay type: in vivo, CD-1 mice; conditions: for Anti-ATF-3: SG-fed vs control
Protocol: as §2
Tissue-mounted slides were processed for fluorescence microscopy as follows: Sections were rinsed in coplin jars for 45 minutes at room temperature (RT) in three changes of PBS. Sections were then incubated at RT for 30 minutes in a blocking permeabilization solution made of 5% normal goat serum (NGS), 5% normal rabbit serum (NRS) or 5% BlokHen II (Aves Labs, Inc., Tigard, OR), 0.05% Triton X-100 and PBS. Subsequently, the blocking solution was tipped off and the slides were rinsed in PBS for 2 minutes. […]

[3] = Body weights of SG-fed animals; assay type: in vivo, CD-1 mice; conditions: SG-fed vs control, over the study
Protocol: as §1, §2

CD-1 mice [4] = experiment: Leg extension reflex test; assay type: in vivo
Protocol: as §1
as §2, with “All experimental pellets were entirely consumed by the mice each day. Control mice were fed standard mouse chow pellets of identical weight with no additives.” left out
Leg extension reflex test: The leg extension reflex test was used as a measure of motor neuron dysfunction (Barneoud and Curet, 1999). […] The leg extension reflex was measured three times per week in each animal. […]

SMILES: CCC(C=CC(C)C1CCC2C3CC=C4CC(OC5OC(CO)C(O)C(O)C5O)CCC4(C)C3CCC12C)C(C)C (stereo not shown) [SG]
- Total distance moved (CD-1 mice [1]; time-point 1, 35 wk): Total distance moved (ns)
- Total distance to zone border (CD-1 mice [1]; time-point 1, 35 wk): Total distance to zone border (ns)
- Total turn angle (CD-1 mice [1]; time-point 1, 35 wk): Total turn angle (ns)
- Total distance to zone border (CD-1 mice [1]; time-point 2, 52 wk): Total distance to zone border* (*p<0.05)
- Anti-ATF-3 immunoreactive cells ([2]; SG-fed group over time, 35 to 52 wk): Anti-ATF-3 immunoreactive cells (SG-fed group over time): -48%***
- Anti-ATF-3 ([2]; time-point 1, 35 wk): Anti-ATF-3:+242%***
- Anti-ATF-3 ([2]; time-point 2, 52 wk): Anti-ATF-3:+101%**
- Body weights [3]: not significantly different; also recorded: normal weight gain
- Leg extension reflex test performance (score) (CD-1 mice [4]; SG-fed animals, soon after 35 weeks / during the study): steady decline in performance; also recorded: decreased
- Leg extension (CD-1 mice [4]; SG-fed vs control, time-point 2, 52 wk): Leg extension* (*p<0.05)
